Assay results reported in ChEMBL document CHEMBL3112568, “Synthesis, antifungal activities and molecular docking studies of novel 2-(2,4-difluorophenyl)-2-hydroxy-3-(1H-1,2,4-triazol-1-yl)propyl dithiocarbamates” (2014).
Converted amounts (≈) assume the structure as drawn.

Columns and labels:
Format in all cases: functional
Trichophyton rubrum = test: Antifungal activity against Trichophyton rubrum by micro-broth dilution method
Cryptococcus neoformans = test: Antifungal activity against Cryptococcus neoformans after 72 hrs by micro-broth dilution method
Nannizzia gypsea = test: Antifungal activity against Microsporum gypseum by micro-broth dilution method
Candida albicans [1] = test: Antifungal activity against Candida albicans Y0109 after 24 hrs by micro-broth dilution method; conditions: Y0109, 24 h
Nakaseomyces glabratus = test: Antifungal activity against Candida glabrata by micro-broth dilution method
Aspergillus fumigatus = test: Antifungal activity against Aspergillus fumigatus by micro-broth dilution method
Candida albicans [2] = test: Antifungal activity against Candida albicans SC5314 after 24 hrs by micro-broth dilution method; conditions: SC5314, 24 h
Candida parapsilosis = test: Antifungal activity against Candida parapsilosis by micro-broth dilution method; conditions: Lodderomyces parapsilosis

| SMILES | MIC80 (Trichophyton rubrum) | MIC80 (Cryptococcus neoformans) | MIC80 (Nannizzia gypsea) | MIC80 (Candida albicans [1]) | MIC80 (Nakaseomyces glabratus) | MIC80 (Aspergillus fumigatus) | MIC80 (Candida albicans [2]) | MIC80 (Candida parapsilosis) |
| --- | --- | --- | --- | --- | --- | --- | --- | --- |
| CCN(CC)C(=S)SCC(O)(Cn1cncn1)c1ccc(F)cc1F (racemic) | 8 µg/mL (≈ 20.7 µM) | 0.25 µg/mL (≈ 0.647 µM) | 4 µg/mL (≈ 10.3 µM) | ≤ 0.125 µg/mL | ≤ 0.125 µg/mL | 8 µg/mL (≈ 20.7 µM) | ≤ 0.125 µg/mL | 0.5 µg/mL (≈ 1.29 µM) |
| CC(=O)N1CCN(c2ccc(OCC3COC(Cn4ccnc4)(c4ccc(Cl)cc4Cl)O3)cc2)CC1 (stereo unspecified) [KETOCONAZOLE] | 0.125 µg/mL (≈ 0.235 µM) | 0.25 µg/mL (≈ 0.47 µM) | 1 µg/mL (≈ 1.88 µM) | 0.25 µg/mL (≈ 0.47 µM) | 0.5 µg/mL (≈ 0.941 µM) | 4 µg/mL (≈ 7.53 µM) | ≤ 0.125 µg/mL | 0.5 µg/mL (≈ 0.941 µM) |
| OC(Cn1cncn1)(Cn1cncn1)c1ccc(F)cc1F [FLUCONAZOLE] | 4 µg/mL (≈ 13.1 µM) | 1 µg/mL (≈ 3.27 µM) | 32 µg/mL (≈ 104 µM) | 0.25 µg/mL (≈ 0.816 µM) | 2 µg/mL (≈ 6.53 µM) | > 64 µg/mL | 0.25 µg/mL (≈ 0.816 µM) | 2 µg/mL (≈ 6.53 µM) |
| C=CCNC(=S)SCC(O)(Cn1cncn1)c1ccc(F)cc1F (racemic) | 64 µg/mL (≈ 173 µM) | 64 µg/mL (≈ 173 µM) | 64 µg/mL (≈ 173 µM) | 0.5 µg/mL (≈ 1.35 µM) | 4 µg/mL (≈ 10.8 µM) | > 64 µg/mL | 0.5 µg/mL (≈ 1.35 µM) | 2 µg/mL (≈ 5.4 µM) |
| OC(CSC(=S)N1CCN(Cc2ccccc2)CC1)(Cn1cncn1)c1ccc(F)cc1F (racemic) | 2 µg/mL (≈ 4.08 µM) | 0.25 µg/mL (≈ 0.511 µM) | 2 µg/mL (≈ 4.08 µM) | ≤ 0.125 µg/mL | 0.25 µg/mL (≈ 0.511 µM) | 4 µg/mL (≈ 8.17 µM) | ≤ 0.125 µg/mL | 1 µg/mL (≈ 2.04 µM) |
| OC(CSC(=S)NCc1ccccc1)(Cn1cncn1)c1ccc(F)cc1F (racemic) | 0.5 µg/mL (≈ 1.19 µM) | 16 µg/mL (≈ 38 µM) | 32 µg/mL (≈ 76.1 µM) | 1 µg/mL (≈ 2.38 µM) | 8 µg/mL (≈ 19 µM) | > 64 µg/mL | 0.5 µg/mL (≈ 1.19 µM) | 8 µg/mL (≈ 19 µM) |
| OCCN(CCO)C(=S)SCC(O)(Cn1cncn1)c1ccc(F)cc1F (racemic) | 1 µg/mL (≈ 2.39 µM) | 64 µg/mL (≈ 153 µM) | 1 µg/mL (≈ 2.39 µM) | 8 µg/mL (≈ 19.1 µM) | 0.25 µg/mL (≈ 0.597 µM) | > 64 µg/mL | 8 µg/mL (≈ 19.1 µM) | > 64 µg/mL |
| CN(C)C(=S)SCC(O)(Cn1cncn1)c1ccc(F)cc1F (racemic) | 0.5 µg/mL (≈ 1.39 µM) | 0.5 µg/mL (≈ 1.39 µM) | 2 µg/mL (≈ 5.58 µM) | ≤ 0.125 µg/mL | ≤ 0.125 µg/mL | 8 µg/mL (≈ 22.3 µM) | ≤ 0.125 µg/mL | 0.5 µg/mL (≈ 1.39 µM) |
| Cc1cccc(N2CCN(C(=S)SCC(O)(Cn3cncn3)c3ccc(F)cc3F)CC2)c1C (racemic) | 1 µg/mL (≈ 1.99 µM) | 0.5 µg/mL (≈ 0.993 µM) | > 64 µg/mL | 0.5 µg/mL (≈ 0.993 µM) | 0.5 µg/mL (≈ 0.993 µM) | > 64 µg/mL | 0.5 µg/mL (≈ 0.993 µM) | 1 µg/mL (≈ 1.99 µM) |
| Cc1ccccc1N1CCN(C(=S)SCC(O)(Cn2cncn2)c2ccc(F)cc2F)CC1 (racemic) | 2 µg/mL (≈ 4.08 µM) | 0.5 µg/mL (≈ 1.02 µM) | 16 µg/mL (≈ 32.7 µM) | ≤ 0.125 µg/mL | 0.5 µg/mL (≈ 1.02 µM) | > 64 µg/mL | 0.25 µg/mL (≈ 0.511 µM) | 1 µg/mL (≈ 2.04 µM) |
| CN(C/C=C/C#CC(C)(C)C)Cc1cccc2ccccc12 [TERBINAFINE] | 0.0625 µg/mL (≈ 0.214 µM) | 0.25 µg/mL (≈ 0.858 µM) | 0.0625 µg/mL (≈ 0.214 µM) | 16 µg/mL (≈ 54.9 µM) | 2 µg/mL (≈ 6.86 µM) | 0.25 µg/mL (≈ 0.858 µM) | 4 µg/mL (≈ 13.7 µM) | 1 µg/mL (≈ 3.43 µM) |
| CN(Cc1ccccc1)C(=S)SCC(O)(Cn1cncn1)c1ccc(F)cc1F (racemic) | > 64 µg/mL | 1 µg/mL (≈ 2.3 µM) | > 64 µg/mL | 0.25 µg/mL (≈ 0.575 µM) | 0.25 µg/mL (≈ 0.575 µM) | 16 µg/mL (≈ 36.8 µM) | 0.25 µg/mL (≈ 0.575 µM) | 0.5 µg/mL (≈ 1.15 µM) |
| OC(CSC(=S)N1CCN(c2ccc(Cl)cc2)CC1)(Cn1cncn1)c1ccc(F)cc1F (racemic) | 1 µg/mL (≈ 1.96 µM) | ≤ 0.125 µg/mL | 4 µg/mL (≈ 7.84 µM) | ≤ 0.125 µg/mL | 0.25 µg/mL (≈ 0.49 µM) | 16 µg/mL (≈ 31.4 µM) | ≤ 0.125 µg/mL | 0.5 µg/mL (≈ 0.98 µM) |
| OC(CSC(=S)N1CCOCC1)(Cn1cncn1)c1ccc(F)cc1F (racemic) | 8 µg/mL (≈ 20 µM) | 0.25 µg/mL (≈ 0.624 µM) | 8 µg/mL (≈ 20 µM) | ≤ 0.125 µg/mL | ≤ 0.125 µg/mL | 16 µg/mL (≈ 40 µM) | ≤ 0.125 µg/mL | 0.25 µg/mL (≈ 0.624 µM) |
| COc1ccc(N2CCN(C(=S)SCC(O)(Cn3cncn3)c3ccc(F)cc3F)CC2)cc1 (racemic) | 1 µg/mL (≈ 1.98 µM) | 0.25 µg/mL (≈ 0.494 µM) | 2 µg/mL (≈ 3.96 µM) | ≤ 0.125 µg/mL | ≤ 0.125 µg/mL | 8 µg/mL (≈ 15.8 µM) | ≤ 0.125 µg/mL | 0.25 µg/mL (≈ 0.494 µM) |
| CN1CCN(C(=S)SCC(O)(Cn2cncn2)c2ccc(F)cc2F)CC1 (racemic) | 1 µg/mL (≈ 2.42 µM) | 0.25 µg/mL (≈ 0.605 µM) | 4 µg/mL (≈ 9.67 µM) | ≤ 0.125 µg/mL | ≤ 0.125 µg/mL | 8 µg/mL (≈ 19.3 µM) | ≤ 0.125 µg/mL | 0.25 µg/mL (≈ 0.605 µM) |
| OC(CSC(=S)N1CCN(c2ccccc2Cl)CC1)(Cn1cncn1)c1ccc(F)cc1F (racemic) | 1 µg/mL (≈ 1.96 µM) | ≤ 0.125 µg/mL | 2 µg/mL (≈ 3.92 µM) | ≤ 0.125 µg/mL | 0.5 µg/mL (≈ 0.98 µM) | 8 µg/mL (≈ 15.7 µM) | ≤ 0.125 µg/mL | 0.5 µg/mL (≈ 0.98 µM) |
